From patent US20040081712A1, “Substance for treatment of non-insulin dependent diabetes mellitus, hypertension and/or the metabolic syndrome” (priority 2001, published 2004)
“Also recorded” adds a separate entry of the source. Values belong to the compound of their own block, whether it stands above or below them.

Key:
[1] = test system: Salmonella typhimurium strains; conditions: cited from earlier work
[2] = test system: rats; experiment: intravenous administration to rats; conditions: rat, in vivo
[3] = test system: rats; conditions: rat, in vivo; cited from earlier work
[4] = another study; cited from earlier work
[5] = test system: isolated mouse islets; experiment: insulin secretion from isolated mouse islets; format: cell-based; conditions: for glucose-stimulated insulin secretion: 16.7 mmol/l, 10^−9-10^−3 mol/l; for maximal stimulatory dose: NMRI mouse islets
Method: Islet from 6-10 NMRI mice were isolated and incubated in the presence of 16.7 mmol/l and 10^−9-10^−3 mol/l stevioside or 10^−9-10^−3 mol/l steviol. The results of these tests are illustrated in FIGS. 4a and 4b where each column represents mean±SEM from 24 incubations of single islets. Black bars in FIG. 4a indicate that stevioside is present and hatched bars indicate that stevioside is absent. Grey bars in FIG. 4b indicate that steviol is present and hatched bars indicate that steviol is absent. The influence of the maximal stimulatory doses of 10^−3 mol/l stevioside and 10^−6 mol/l steviol was studied in NMRI mouse islets over a range between 0 and 16.7 mmol/l glucose. […] Black bars in FIG. 7a indicate that stevioside is present and hatched bars indicate that stevioside is absent. Grey bars in FIG. 7b indicate that steviol is present and hatched bars indicate that steviol is absent.

[6] = test system: mice; conditions: mouse, in vivo; cited from earlier work
[7] = test system: hamsters; conditions: cited from earlier work
[8] = test system: hamsters; conditions: doses as high as 2.5 g/kg body weight/day; cited from earlier work
[9] = test system: Goto-Kakizaki rats; experiment: four-week test diets with glucose tolerance test in Goto-Kakizaki rats; format: in vivo, rat
Method: In the following example is the term “Soy” defined as a composition comprising 65 weight-% soy protein, at least 0.2 weight-% isoflavones and 18 weight-% soy dietary fibres, mostly cotyledon fibres. “Altromin” is a standard carbohydrate rich laboratory animal diet.” Four test diets, A, B, C and D as defined below, were administered for four weeks to four groups of adult rats. A: Altromin; n=12 (Alt). B: Altromin supplemented with stevioside; n=12; (Alt+Ste). C: 80% Soy plus 20% Altromin; n=12; (Soy). D: 80% Soy plus 20% Altromin plus stevioside; n=12; (Soy+Ste) Each experimental group consisted of twelve female Goto-Kakizaki with an age of 9 weeks. The rats received the stevioside (0.025 g/kg body weight/day) with the drinking water. By the end of the third experimental week intra-arterial catheters were implanted into the carotid artery thereby enabling blood sampling during a 240 minutes glucose-tolerance test which was carried out by the end of the experiment at week 4. Blood samples were drawn after a bolus infusion of 2.0 g D-glucose/kg body weight. Plasma concentrations of glucose, insulin, and glucagon were measured during the glucose tolerance test. Immediately before the glucose tolerance test fasting levels of triglycerides and cholesterol were determined. Concomitantly, the systolic blood pressure was measured using a tail cuff. (Plasma glucose was measured using MPR 3, 166 391, Glucose/GOD-PAP Method from Boehringer Mannheim) (Plasma insulin was measured using Sensitive Rat Insulin RIA, Cat # SRI-13K from Linco) (Plasma glucagon was measured using Glucagon RIA, Cat # GL-32K from Linco) (Blood pressure was measured using TSE Non-Invasive Blood Pressure Monitoring System from Technical Scientific Equipment GmbH) (Plasma cholesterol was measured GOD-PAP from Roche and triglycerides was measured using GHOD-PAP from Roche)

[10] = test system: F344 rats; conditions: cited from earlier work
[11] = rats; cited from earlier work
[12] = test system: GK rats; experiment: blood pressure during 6 weeks treatment of GK rats; format: in vivo, rat; conditions: 0.025 g/kg body weight/24 h in drinking water
Method: GK rats were treated with stevioside 0.025 g/kg body weight/24 h for 6 weeks. Stevioside was administered in the drinking water. GK rats receiving drinking water with 0.111 g D-glucose/kg body weight/24 h served as controls. Systolic (FIG. 6a, control: O-O series, stevioside-treated: {circle over (2)}-{circle over (2)} series) and diastolic (FIG. 6b, control: O-O series, stevioside-treated: {circle over (2)}-{circle over (2)} series) blood pressures were measured on the tail.

[13] = test system: type II diabetic patients; experiment: acute paired cross-over test meal study; format: in vivo, human; conditions: 1 g orally with standard meal
Excerpt: Twelve type II diabetic patients (4 female/8 males) with a mean age of 65.8±1.6 years, a diabetes duration of 6.0±1.3 years, a mean body mass index of 28.5±1.0, and a mean glycated hemoglobin HbAlc of 7.4+0.4 percent were included in the study. The experiment was an acute, paired, cross-over study in which two test meals were served during the experiments (A: Standard meal supplemented with 1 g of stevioside given orally; B: Standard meal given together with 1 g of gelatine (placebo) given orally. The total energy content of the test meals was 1725 kJ (protein 16 E %, fat 30 E %, carbohydrate 54 E %). Blood samples were drawn from an antecubital vein 30 minutes before and 240 minutes after ingestion of the test meal. The arterial blood pressure was continuously monitored during the experiment. Students paired t-test was used for comparing the effects of stevioside with placebo on the parameters measured. Data are given as mean±SEM.

[14] = stevioside infusion at normal blood glucose; format: in vivo; conditions: bolus or constant intravenous infusion
[15] = test system: spontaneously hypertensive rats; conditions: intravenously 200 mg/kg; cited from earlier work
[16] = test system: GK rats; experiment: i.v. glucose tolerance test in GK rats; format: in vivo, rat
Method: In the following examples, the type II diabetic Goto-Kakizaki (GK) rats originated from Takeda Chemical Ind., Tokyo, Japan and were bred locally.
As examples of the effects of a compound including the chemical formulas II, stevioside was tested on normal Wistar rats and on GK rats. 2.0 g glucose/kg body weight and 0.2 g stevioside/kg body weight were dissolved in 0.9% saline and infused intravenously. The plasma glucose and insulin levels were measured over a period of 2 hours.
The results are shown in FIGS. 2a, 2b, 3a and 3b, were the O-O series (n=6 for Wistar and n=14 for GK) illustrate glucose infused alone and the {circle over (2)}-{circle over (2)} series (n=6 for Wistar and n=12 for GK) illustrate the combined glucose and stevioside infusion. Data are given as mean±SEM.
During a glucose tolerance test, an intravenous bolus of stevioside of 0.2 g/kg body weight was injected in GK rats (the {circle over (2)}-{circle over (2)} serie (n=6)). GK rats receiving 0.9% saline intravenously served as controls (the O-O serie (n=6)). Glucose 2.0 g/kg body weight was administered as a bolus at timepoint 0 min. The plasma glucagon responses are shown as mean±SEM in FIGS. 5a (control) and 5b (GK). The plasma glucagon was suppressed in the stevioside treated GK rat.

[17] = isolated perfused rat liver; cited from earlier work
[18] = test system: isolated normal pancreatic rat islets; conditions: 7 mmol/l D-glucose, 1,0 mmol/l; cited from earlier work

Structure (SMILES): C=C1C[C@@]23CC[C@H]4[C@@](C)(CCC[C@@]4(C)C(=O)O)[C@@H]2CC[C@]1(O)C3 [steviol]
mutagenic effect [1]: no mutagenic effect
effect when administered intravenously to rats [2]: anti-hyperglycemic, glucagonostatic and insulinotropic effect
LD50 [3]: higher than 15 g/kg body weight
mutagenicity [4]: dose-related positive responses
stimulation of insulin secretion, steviol compared with stevioside [5]: stimulate the insulin secretion to a greater extent
glucose-stimulated insulin secretion [5]: capable of potentiating glucose-stimulated insulin secretion
maximal stimulatory dose [5]: 10^−6 mol/l
LD50 [6]: higher than 15 g/kg body weight
LD50 ([7]; hamster, in vivo): 5-6 g/kg body weight
pathology accompanying lethal dose ([7]; hamsters): degeneration of the proximal tubular cells

hypoglycemia [14]: did not cause any hypoglycemia
Structure (SMILES): C=C1C[C@@]23CC[C@H]4[C@@](C)(CCC[C@@]4(C)C(=O)O[C@@H]4O[C@H](CO)[C@@H](O)[C@H](O)[C@H]4O)[C@@H]2CC[C@]1(O[C@@H]1O[C@H](CO)[C@@H](O)[C@H](O)[C@H]1O[C@@H]1O[C@H](CO)[C@@H](O)[C@H](O)[C@H]1O)C3 [stevioside]
effect on growth or reproduction [8]: no effect on growth or reproduction
area under the plasma-glucagon response curve, in words ([9]; both Altromin and soy groups): significantly reduced
area under the glucose response curve, in words ([9]; glucose tolerance test): reduced the incremental area (IAUC) under the glucose response curve
first phase insulin response, in words ([9]; glucose tolerance test): significantly improved the first phase insulin responses
insulin response curve 0 to 240 minutes, in words ([9]; glucose tolerance test): did not alter the insulin responses
fasting triglyceride levels, in words ([9]; rat, in vivo): significant suppression of the fasting triglyceride levels
suppression of the systolic blood pressure (Δ) ([9]; stevioside in combination with Altromin): −28 mmHg
suppression of the systolic blood pressure (Δ) ([9]; stevioside in combination with soy): −21 mmHg
carcinogenicity [10]: not carcinogenic
route of excretion [11]: excreted by the urine
time of treatment after which decrease in blood pressure was detectable [12]: 2 weeks
decrease in the blood pressure ([12]; 6 weeks, systolic and diastolic, tail): 10-15%
mutagenic effect [1]: no mutagenic effect
effect when administered intravenously to rats [2]: anti-hyperglycemic, glucagonostatic and insulinotropic effect
absolute IAUC postprandial blood glucose [13]: 522±64 mmol/l x 240 min
insulin response (IAUC) [13]: the difference did not reach statistical significance
postprandial glucagon levels [13]: 281±33
reduction of postprandial blood glucose response compared to placebo [13]: 18±5%
fall in the systolic blood pressure [15]: only small
time after which significant decrease of plasma glucose was observed ([16]; 2.0 g glucose/kg + 0.2 g stevioside/kg i.v.): 30 min
plasma glucose response ([16]; 2.0 g glucose/kg + 0.2 g stevioside/kg i.v., 2 hours): inhibited blood glucose responses; also recorded: diminished glucose response
plasma insulin response ([16]; 2.0 g glucose/kg + 0.2 g stevioside/kg i.v., compared to the Wistar rat): pronounced increase in the insulin response
plasma glucagon response ([16]; i.v. bolus 0.2 g/kg, glucose 2.0 g/kg): suppressed
metabolism [17]: not metabolised
mutagenicity [4]: not mutagenic
glucose-stimulated insulin secretion [5]: capable of potentiating glucose-stimulated insulin secretion
maximal stimulatory dose [5]: 10^−3 mol/l
insulin output [18]: significant increase in insulin output
